How the values were obtained:
5XFAD mice = experiment: Novel object recognition after ERGO treatment; assay type: in vivo, mouse; conditions: ERGO-treated 5XFAD versus non-treated 5XFAD and WT, final test trial
Experimental: To address our primary question whether longitudinal consumption of ERGO as a potent antioxidant benefit the brain, three cohorts of animals (n=12 non-treated WT control, n=12 non-treated 5XFAD, and n=18 ERGO-treated 5XFAD) were used (FIG. 3.2A). Starting at the age of 8 weeks, the animals were treated with high doses of ERGO solution (25-50 mg/Kg) formulated in double distilled (dd) water via oral gavage three times a week over the course of eight weeks. To reduce bias in the behavioral experiments with regard to the potential stress during gavage treatment, non-treated animals underwent the identical gavage process with the vehicle, water, only. The efficacy of the therapy was evaluated by behavioral testing, followed by three different non-invasive PET imaging sessions to assess biomarkers related to AD pathology. […]
Mice were first allowed to habituate to an open arena for 5 min (white acrylic box, approximately 40 cm^2) located under a camera to record position and movement during trials. […] Preference for either object was inferred from exploratory proximity which was recorded automatically using AnyMaze using a target area comprising a circle with diameter 2-cm larger than the target objects. […]

GFAP-positive astrocytes = experiment: GFAP immunohistochemistry of brain sections after ERGO treatment; assay type: in vivo, mouse; conditions: ERGO-treated versus non-treated 5XFAD mice
Experimental: In this study, after the PET imaging, animals (non-treated 5XFAD (n=3) and ERGO-treated 5XFAD mice (n=5)) were perfused, and the brain sections were stained with antibodies against GFAP and IBA1 for neuroinflammatory markers astrocytes and microglia, respectively.
Brains embedded in OCT were cut into sagittal sections (10 μm) using a Tissue-Tek cryostat and mounted onto charged glass slides. Prior to staining, slides were washed with PBS (10 min); then, they were treated with blocking buffer (5% normal goat serum, 0.2% Triton X-100, 0.5% bovine albumin in PBS) for 1 h at room temperature. The treated sections were then incubated overnight at 4° C. with primary anti-GFAP antibody (1:100 dilution, Biolegend San Diego, Calif., USA). Slides were washed with PBS (3×) for 10 min each, the sections were subsequently incubated with secondary antibody goat anti-mouse Alexa Fluor 488 (1:200 dilution, Thermo Fisher Scientific, Carlsbad, Calif., USA) for 30 min at room temperature. The sections were then washed with PBS twice for 10 min and once for 30 min, and coverslipped with an antifade mounting medium (Vector Laboratories, Burlingame, Calif.) before observation under a fluorescence microscope.
Quantitative analysis of the PET imaging and IHC data was performed using imageJ software. […]

[1] = Ex-vivo cut-and-count whole-body biodistribution of I.V.-injected [11C]ERGO in WT mice; design: species or system mouse; conditions: pharmacokinetic study
oxidative stress = experiment: PET imaging of LPS-induced neuroinflammation with [11C]ERGO radioligand, with Tempol blocking; assay type: in vivo, mouse; conditions: LPS 5 mg/Kg i.p. 24 h before; 20 MBq/0.1 mL I.V.; 30 min scan from 10 min after injection
Experimental: The mice were injected with ˜20 MBq/0.1 ml 11C-ERGO via the tail vein and returned to their cages for 10 min. Then they were anesthetized with 2% isofluorane and imaged in an Inveon microPET (Siemens Pre-clinical, Knoxville, Tenn., USA) for 30 min in static mode followed by a CT scan using a NanoSPECT/CT (Mediso, Wash. D.C.) at an x-ray beam intensity of […] and x-ray voltage of 45 kVp. PET images were reconstructed using the iterative MAP reconstruction algorithm with 18 iterations and a beta smoothing value of 0.001 into 128×128×95 slices with a voxel size of 0.388 mm×0.388 mm×0.796 mm. The CT images were reconstructed into 170×170×126 slices at a voxel size of 0.4×0.4×0.4 mm^3. The PET and CT images were co-registered using the imaging tool AMIDE.
The mouse model of LPS-induced neuroinflammation was developed based on past reports. The LPS derived from Escherichia coli […] (Sigma Aldrich, St Louis, Mo.) was formulated in sterilized dd. water and given a high dose of LPS formulation (5 mg/Kg) through intraperitoneal injection 24 h before PET imaging. This high dose would result in approximately 12-13% body weight loss over the course of 24 h. After PET imaging, animals were sacrificed, and the brains were collected for histology analysis.
The reported LPS mouse model of neuroinflammation in the past was reproduced for the validation of the specificity of the probe. […]

Structure (SMILES)	discrimination index (5XFAD mice)	reduction of GFAP-positive astrocytes in the hippocampus (GFAP-positive astrocytes) [%]	time after injection at which the concentration in the serum started to decrease [1] [min]	PET signal in brain regions, LPS-treated versus nontreated WT mice (oxidative stress)
C[N+](C)(C)[C@@H](Cc1c[nH]c(=S)[nH]1)C(=O)[O-] [ERGO, L-ergothioneine]	did not vary among the groups	~50	–	–
C[N+](C)([11CH3])[C@@H](Cc1c[nH]c(=S)[nH]1)C(=O)[O-] [[^11C]ERGO]	–	–	10	stronger than that from nontreated counterparts across every major region of the brain
